According to ChEMBL document CHEMBL1157053, “Pharmacophore-based 3D QSAR studies on a series of high affinity 5-HT1A receptor ligands” (Eur J Med Chem, 2010):

Molecular target: T1, 5-hydroxytryptamine receptor 1A (Homo sapiens, UniProt P08908)
T1 sequence (P08908 whole entry): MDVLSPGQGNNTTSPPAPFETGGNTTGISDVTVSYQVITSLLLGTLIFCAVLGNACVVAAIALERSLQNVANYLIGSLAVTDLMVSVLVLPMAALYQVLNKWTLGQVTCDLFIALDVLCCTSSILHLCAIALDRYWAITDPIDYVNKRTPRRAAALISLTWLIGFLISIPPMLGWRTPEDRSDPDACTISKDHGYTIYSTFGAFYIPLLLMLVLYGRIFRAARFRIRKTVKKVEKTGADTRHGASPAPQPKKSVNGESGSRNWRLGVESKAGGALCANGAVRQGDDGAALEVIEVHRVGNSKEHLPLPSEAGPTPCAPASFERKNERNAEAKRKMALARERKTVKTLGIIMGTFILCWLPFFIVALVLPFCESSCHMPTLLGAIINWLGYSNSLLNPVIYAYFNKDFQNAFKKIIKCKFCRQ
Test: Antagonist activity at 5HT1A
Type: functional

Ki	Structure (SMILES)
12.9 nM	COc1cc(F)ccc1N1CCN(CCC(=O)c2cc(C)sc2C)CC1
1580 nM	OC(CCN1CCN(c2ccc3sccc3c2)CC1)c1csc2ccccc12 (centres undefined)
5010 nM	Cc1cc(C(=O)CCN2CCN(c3cccc4ccccc34)CC2)c(C)s1
182 nM	COc1ccccc1N1CCN(CCC(Oc2cccc3ccccc23)c2ccsc2)CC1 (centres undefined)
66.1 nM	OC(CCN1CCN(c2cccc3ccccc23)CC1)c1csc2ccccc12 (centres undefined)
550 nM	OC(CCN1CCN(c2cccc3cccnc23)CC1)c1csc2ccccc12 (centres undefined)
2.51 nM	Cc1ccc2cccc(N3CCN(CCC(O)c4csc5ccc(F)cc45)CC3)c2n1 (centres undefined)
219 nM	COc1ccccc1N1CCN(CCC(Oc2cccc3ccccc23)c2cccs2)CC1 (centres undefined)
3.02 nM	OC(CCN1CCN(c2cccc3c2OCCCO3)CC1)c1csc2ccc(F)cc12 (centres undefined)
5010 nM	FC(F)(F)c1ccc(OC(CCN2CCN(c3ccc(Cl)cc3)CC2)c2ccccc2)cc1 (centres undefined)
1.91 nM	OC(CCN1CCN(c2cccc3c2OCCCO3)CC1)c1csc2ccccc12 (centres undefined)
20 nM	COc1ccccc1N1CCN(CCC(Oc2ccc3c(c2)OCO3)c2ccccc2)CC1 (centres undefined)
372 nM	COc1ccccc1N1CCN(CCC(O)c2csc(C)c2)CC1 (centres undefined)
5010 nM	OC(CCN1CCN(c2ccccc2Cl)CC1)c1ccsc1 (centres undefined)
794 nM	COc1ccccc1N1CCN(CC/C(=N\O)c2csc3ccccc23)CC1
372 nM	OC(CCN1CCN(c2ncccn2)CC1)c1ccccc1 (centres undefined)
37.2 nM	OC(CCN1CCN(c2cccc3ncccc23)CC1)c1csc2ccccc12 (centres undefined)

Ki	Structure (SMILES)
5010 nM	COc1ccccc1N1CCN(CCC(=O)c2cc(C)sc2C)CC1
851 nM	COc1ccccc1N1CCN(CCC(O)c2ccc(-c3ccccc3)cc2)CC1 (centres undefined)
50.1 nM	COc1ccccc1N1CCN(CCC(=O)c2ccc([N+](=O)[O-])cc2)CC1
191 nM	Oc1ccccc1N1CCN(CCC(O)c2ccc3ccccc3c2)CC1 (centres undefined)
145 nM	OC(CCN1CCN(c2ccc(F)cc2)CC1)c1ccccc1 (centres undefined)
1000 nM	O=C(CCN1CCN(c2ccccc2O)CC1)c1ccc2ccccc2c1
550 nM	OC(CCN1CCN(c2ccc3ncccc3c2)CC1)c1csc2ccccc12 (centres undefined)
89.1 nM	Cc1cc(C(O)CCN2CCN(c3ccccc3O)CC2)c(C)s1 (centres undefined)
10 nM	COc1ccccc1N1CCN(CCC(O)c2ccc([N+](=O)[O-])cc2)CC1 (centres undefined)
6.03 nM	OC(CCN1CCN(c2cccc3c2OCCO3)CC1)c1csc2ccc(F)cc12 (centres undefined)
1000 nM	OC(CCN1CCN(c2cnc3ccccc3c2)CC1)c1csc2ccccc12 (centres undefined)
9.33 nM	CC1CN(CCC(O)c2csc3ccc(F)cc23)CCN1c1cccc2c1OCO2 (centres undefined)
2.69 nM	OC(CCN1CCN(c2cccc3cccnc23)CC1)c1csc2ccc(F)cc12 (centres undefined)
55 nM	COc1ccccc1N1CCN(CCC(Oc2ccc3c(c2)OCO3)c2ccsc2)CC1 (centres undefined)
60.3 nM	COc1ccccc1N1CCN(CCC(=O)c2ccsc2)CC1
89.1 nM	COc1ccc(OC(CCN2CCN(c3ccccc3OC)CC2)c2ccccc2)cc1 (centres undefined)
10.2 nM	Cc1ccc2cccc(N3CCN(CCC(O)c4csc5ccccc45)CC3)c2n1 (centres undefined)
